The record followed here is the supplement of paper PMC8671470.

What all share (conditions): 72 h
One assay relates to BV-173. The essentials:
(§1)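 The IC50 was derived from log-logistic dose–response fitting. Each of fifteen myeloid leukaemia cell lines, seeded in RPMI 1640 within its linear growth range, was exposed in 384-well plates to five tenfold doses (1 to 10,000 nM) in duplicate for 72 h at 37 °C and 5% CO2. Luminescent ATP viability readings were normalised to vehicle and to a positive control at 10 µM before four-parameter curve fitting.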

The next assay deals with HEL. In outline: as §1
In the next assay the test system is HL-60. In outline:
as §1

A further assay relates to K-562. In outline:
as §1

The test system of a further assay is KCL-22. In outline:
as §1

Another assay deals with KG-1. In outline:
as §1

Another assay deals with KU-812. The essentials:
as §1

A further assay concerns LAMA-84. In outline:
as §1

The subject of another assay is ML-2. In outline: as §1
In a further assay the test system is MOLM-13. In outline:
as §1

In the next assay the test system is Mono-Mac-6. The essentials:
as §1

The test system of another assay is NOMO-1. The essentials:
as §1

The next assay concerns SHI-1. In outline: as §1
Another assay relates to THP-1. In outline:
as §1

Consider `C[C@](N)(Cc1ccc(O)cc1)C(=O)O` [Metirosine], for which the “IC50 (cell viability)” value with BV-173, in the assay on HEL, with HL-60, in the assay with K-562, in the assay with KCL-22 and in the assay on KG-1 was over 10 µM each time. Besides, the “IC50 (cell viability)” value in the assay with KU-812, in the assay on LAMA-84, in the assay on ML-2, in the assay with MOLM-13, in the assay on Mono-Mac-6 and in the assay with NOMO-1 was over 10 µM in each case. Moreover, the “IC50 (cell viability)” value in the assay with SHI-1 and in the assay with THP-1 was over 10 µM in each case.

Take `CCCCN1C[C@H](O)[C@@H](O)[C@H](O)[C@H]1CO` [Miglustat]: the “IC50 (cell viability)” value in the assay with BV-173, in the assay on HEL, with HL-60, in the assay on K-562, in the assay on KCL-22 and with KG-1 was over 10 µM throughout. The “IC50 (cell viability)” value with KU-812, with LAMA-84, in the assay on ML-2, in the assay on MOLM-13, in the assay on Mono-Mac-6 and in the assay with NOMO-1 was over 10 µM in each case. Besides, the “IC50 (cell viability)” value in the assay on SHI-1 and with THP-1 was over 10 µM in each case.

For `O=C(O)c1cc(Cl)cc(Cl)c1O` [3,5-Dichlorosalicylic Acid], the “IC50 (cell viability)” value in the assay with BV-173, in the assay with HEL, in the assay on HL-60, in the assay with K-562, with KCL-22 and in the assay on KG-1 was over 10 µM in each case. Also, the “IC50 (cell viability)” value in the assay with KU-812, with LAMA-84, in the assay on ML-2, in the assay with MOLM-13, in the assay with Mono-Mac-6 and in the assay with NOMO-1 was over 10 µM in each case. In addition, the “IC50 (cell viability)” value in the assay with SHI-1 and with THP-1 was over 10 µM each time.

On to `COc1ccc(C(=O)Nc2c(Cl)cncc2Cl)cc1OC1CCCC1` [Piclamilast], for which the “IC50 (cell viability)” value in the assay on BV-173, in the assay on HEL, with HL-60, with K-562, in the assay on KCL-22 and in the assay with KG-1 was over 10 µM throughout. Moreover, the “IC50 (cell viability)” value in the assay with KU-812, in the assay with LAMA-84, in the assay on ML-2, in the assay with MOLM-13, in the assay on Mono-Mac-6 and with NOMO-1 was over 10 µM each time. Also, the “IC50 (cell viability)” value in the assay with SHI-1 and in the assay with THP-1 was over 10 µM in each case.

For `CCOP(=O)(OCC)C(=Cc1cc(C(C)(C)C)c(O)c(C(C)(C)C)c1)P(=O)(OCC)OCC`, the “IC50 (cell viability)” value in the assay with BV-173, in the assay with HEL, in the assay on HL-60, in the assay on K-562, in the assay on KCL-22 and with KG-1 was over 10 µM each time. Besides, the “IC50 (cell viability)” value with KU-812 is over 10 µM; in the assay on LAMA-84 it was over 10 µM; with ML-2, over 10 µM; in the assay on MOLM-13, over 10 µM; in the assay on Mono-Mac-6, 6.9 µM; with NOMO-1, over 10 µM. The “IC50 (cell viability)” value in the assay with SHI-1 and with THP-1 was over 10 µM each time.

Regarding `CC(C)c1onc(-c2c(Cl)cccc2Cl)c1COc1ccc(/C=C/c2cccc(C(=O)O)c2)c(Cl)c1` [GW4064], the “IC50 (cell viability)” value in the assay with BV-173 is 6.11 µM; with HEL, over 10 µM; in the assay on HL-60 it was over 10 µM; in the assay on K-562, 6.26 µM; in the assay with KCL-22, 3.6 µM; in the assay with KG-1, 8.29 µM. The “IC50 (cell viability)” value in the assay on KU-812 was over 10 µM; in the assay with LAMA-84, 4.27 µM; in the assay with ML-2, over 10 µM; in the assay on MOLM-13, 2.34 µM; in the assay with Mono-Mac-6, over 10 µM; in the assay on NOMO-1, over 10 µM. In addition, the “IC50 (cell viability)” value in the assay on SHI-1 and with THP-1 was over 10 µM each time.

Regarding `COc1ccc(-c2ccccc2)cc1NS(=O)(=O)c1cc(Cl)cc(Cl)c1O`, the “IC50 (cell viability)” value in the assay with BV-173, with HEL, with HL-60, in the assay with K-562, in the assay with KCL-22 and in the assay on KG-1 was over 10 µM in each case. For the same molecule, the “IC50 (cell viability)” value in the assay on KU-812, in the assay with LAMA-84, with ML-2, with MOLM-13, in the assay on Mono-Mac-6 and with NOMO-1 was over 10 µM in each case. For the same molecule, the “IC50 (cell viability)” value in the assay on SHI-1 and with THP-1 was over 10 µM throughout.

For the molecule `O=C(O)CCCCC(CCSCc1ccccc1)SCc1ccccc1` (configuration not stated) [CPI-613], the “IC50 (cell viability)” value in the assay with BV-173, in the assay on HEL, in the assay on HL-60, in the assay on K-562, in the assay on KCL-22 and with KG-1 was over 10 µM in each case. The “IC50 (cell viability)” value in the assay with KU-812, in the assay with LAMA-84, with ML-2, in the assay with MOLM-13, in the assay with Mono-Mac-6 and in the assay on NOMO-1 was over 10 µM throughout. The “IC50 (cell viability)” value in the assay with SHI-1 and in the assay on THP-1 was over 10 µM throughout.
